Data on three compounds can be found in article PMC6133092, “Synthesis of 2-alkylthio-N-(quinazolin-2-yl)benzenesulfonamide derivatives: anticancer activity, QSAR studies, and metabolic stability” (Monatshefte Fur Chemie, 2018).

Holding throughout (assay type): cell-based
The test system of one test is EKVX. The test is described as follows: NCI-60 single dose screen, EKVX. The note with it: Homo sapiens, NSCLC, single concentration 10^−5 M, read-out: IGP (inhibition growth percent) EKVX. The gist of the method:
(§1)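 NCI-60 one-dose testing (10 μM) per DTP procedure, cytotoxicity expressed as growth inhibition.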

The subject of another test is HCT-116 (colon cancer). Put plainly: MTT cell viability assay, HCT-116. As to conditions: Homo sapiens, 72 h, mean ± SD.
The test system of another test is NCI-H522. The test is described as follows: NCI-60 single dose screen, NCI-H522. As to conditions: Homo sapiens, NSCLC, single concentration 10^−5 M, read-out: IGP (inhibition growth percent) NCI-H522. The gist of the method: as §1
The subject of the next test is HCT-116. Put plainly: NCI-60 single dose screen, HCT-116. The note with it: Homo sapiens, Colon cancer, single concentration 10^−5 M, read-out: IGP (inhibition growth percent) HCT-116. The procedure, abridged:
as §1

Another test concerns HaCaT. The test is described as follows: Cytotoxic effect against non-carcinogenic cell line HaCaT. The note with it: for IC50: Homo sapiens, HaCaT, non-carcinogenic cell line, mean ± SD; for activity against HCT-116 fold higher compared with HaCaT: selectivity HCT-116 vs HaCaT; for inhibition of growth of HaCaT cells fold weaker than HeLa cells: selectivity HeLa vs HaCaT. The method, then:
For the compounds with the strongest cytotoxicity (12, 18, 22, and 24), an investigation of cytotoxic effect against non-carcinogenic cell line HaCaT was done. […] The activity against HCT-116 was 1.7-, 1.6-, 1.5-, and 1.4-fold higher when compared with HaCaT cell line, for compounds 12, 18, 22, and 24, respectively.
(§2) Cell viability was determined using the MTT (3-(4,5-dimethylthiazol-2-yl)-2,5-diphenyltetrazolium bromide) assay. Cells were seeded in 96-well plates at a density of 5 × 10^3 cells/well and treated for 72 h with the examined compounds in the concentration range 1–100 μM (1, 10, 25, 50, and 100 μM). Following treatment, MTT (0.5 mg/cm^3) was added to the medium and cells were further incubated for 2 h at 37 °C. Cells were lysed with DMSO and the absorbance of the formazan solution was measured at 550 nm with a plate reader (Victor, 1420 multilabel counter). […] The experiment was performed in triplicate. Values are expressed as the mean ± SD of at least three independent experiments.

The next test has as its system UACC-62. The test is described as follows: NCI-60 single dose screen, UACC-62. The note with it: Homo sapiens, Melanoma, single concentration 10^−5 M, read-out: IGP (inhibition growth percent) UACC-62. The gist of the method:
as §1

The next test relates to HCT-116, HeLa, MCF-7. Put plainly: MTT assays, mean over three tested cell lines. As to conditions: Homo sapiens, mean of HCT-116, HeLa, read-out: mean IC50 against three tested cell lines. As for the experimental part:
All of the newly synthesized compounds 9–24 were evaluated for their effects on cell viability in three human cancer cell lines: HCT-116 (colon cancer), HeLa (cervical cancer), and MCF-7 (breast cancer). Cisplatin was used as reference drug. […] Considering the activity of derivatives 9–12, 15, 17, 18, and 21–24, it can be noticed that phenyl group as R^3 bring an increase of cytotoxicity in comparison with methyl in place of R^3. However, this impact seems to be the most important for compounds with the bulky group in R^1 and generally, it is less for a set of derivatives with methyl group substituted in R^1 (9–12).
as §2
In general terms: Tetrazolium assays rely on reduction of a dye to a coloured formazan, in cell work by metabolically active cells.

The subject of another test is HeLa (cervical cancer). The test is described as follows: MTT cell viability assay, HeLa. As to conditions: Homo sapiens.
[1] abbreviates: Table 4, repeats Table 1 values without SD and unit.

The inhibition is the relative decrease from the control value, in per cent. A word on the IC50: it is the concentration needed to halve the response being measured. Consider `O=C(Nc1ccccc1)c1cc(S(=O)(=O)Nc2nc(-c3ccccc3)c3ccccc3n2)c(SCc2ccccc2)cc1Cl` [Compound 18, 2-Benzylthio-4-chloro-5-phenylcarbamoyl-N-(4-phenylquinazolin-2-yl)benzenesulfonamide], for which the inhibition at 10 µM with EKVX amounted to 35%; in the test on NCI-H522, 25%; in the test with HCT-116, 31%; in the test on UACC-62, 39%. Further, the IC50 in the test with HCT-116 (colon cancer) stood at 42 ± 1 µM; in the test with HaCaT, 68 ± 2 µM; with HCT-116, HeLa, MCF-7, 44.7 µM; with HeLa (cervical cancer) (MTT, 72 h, mean ± SD), 46 ± 2 µM; with HeLa (cervical cancer) (setting [1]), 46 µM. Also, the “activity against HCT-116 fold higher compared with HaCaT” value (from here on “activity against HCT-116 fold higher”) in the test on HaCaT stood at 1.6 fold. The “inhibition of growth of HaCaT cells fold weaker than HeLa cells” value with HaCaT worked out at 1.5 fold.

In the case of `O=C(Nc1ccc(Cl)cc1)c1cc(S(=O)(=O)Nc2nc(-c3ccccc3)c3ccccc3n2)c(SCc2ccccc2)cc1Cl` [Compound 22, 2-Benzylthio-4-chloro-5-(4-chlorophenylcarbamoyl)-N-(4-phenylquinazolin-2-yl)benzenesulfonamide], the inhibition at 10 µM is 28% in the test on EKVX, 35% in the test on NCI-H522, 39% with HCT-116 and 40% in the test with UACC-62. In addition, the half-inhibitory concentration (IC50) in the test on HCT-116 (colon cancer) came out at 39 ± 1 µM; in the test on HaCaT, 59 ± 1 µM; in the test on HCT-116, HeLa, MCF-7 it was 44.7 µM; in the test on HeLa (cervical cancer) (MTT, 72 h, mean ± SD), 42 ± 0.5 µM; in the test on HeLa (cervical cancer) (setting [1]), 42 µM. For the same compound, the “activity against HCT-116 fold higher” value in the test on HaCaT is on record as 1.5 fold. Further, in the test on HaCaT, the “inhibition of growth of HaCaT cells fold weaker than HeLa cells” value worked out at 1.4 fold.

As to `Cc1ccc(NC(=O)c2cc(S(=O)(=O)Nc3nc(-c4ccccc4)c4ccccc4n3)c(SCc3ccccc3)cc2Cl)cc1` [Compound 24, 2-Benzylthio-4-chloro-5-(4-methylphenylcarbamoyl)-N-(4-phenylquinazolin-2-yl)benzenesulfonamide], the inhibition at 10 µM in the test on EKVX came out at 45%; in the test with NCI-H522, 28%; in the test with HCT-116, 44%; in the test on UACC-62 it was 28%. Besides, the IC50 was 41 ± 1 µM in the test on HCT-116 (colon cancer); 58 ± 1 µM in the test on HaCaT; 45.7 µM in the test with HCT-116, HeLa, MCF-7; 44 ± 3 µM in the test with HeLa (cervical cancer) (MTT, 72 h, mean ± SD). In addition, in the test on HaCaT, the “activity against HCT-116 fold higher” value is reported as 1.4 fold. Moreover, in the test on HaCaT, the “inhibition of growth of HaCaT cells fold weaker than HeLa cells” value was 1.3 fold.
